These results are taken from article PMC8331687 (ACS chemical biology, 2020).

Structures are written as SMILES.

The assay addresses T1, ObiH (Pseudomonas fluorescens, UniProt A0A1X9LWZ7).
T1 sequence (A0A1X9LWZ7 1-440): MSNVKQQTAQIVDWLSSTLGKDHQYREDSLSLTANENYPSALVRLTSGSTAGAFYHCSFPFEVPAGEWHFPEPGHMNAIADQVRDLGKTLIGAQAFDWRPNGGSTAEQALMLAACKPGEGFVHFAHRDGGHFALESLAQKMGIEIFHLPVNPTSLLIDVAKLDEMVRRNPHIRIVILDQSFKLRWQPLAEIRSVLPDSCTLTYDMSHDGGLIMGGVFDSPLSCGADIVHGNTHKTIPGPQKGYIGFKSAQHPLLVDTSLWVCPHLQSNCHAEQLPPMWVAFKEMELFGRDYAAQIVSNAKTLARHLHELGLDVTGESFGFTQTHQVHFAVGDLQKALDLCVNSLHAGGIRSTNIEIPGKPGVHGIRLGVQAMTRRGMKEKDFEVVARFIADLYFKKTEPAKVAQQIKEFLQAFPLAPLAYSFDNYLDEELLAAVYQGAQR
As to the kind of experiment: UV-vis titration of quinonoid at […] nm. The assay is classed as binding.

One may read the Kd as the free concentration of one partner at which half of the binding sites on the other are occupied at equilibrium, for simple one-to-one binding. Read a low Kd as higher affinity. Take `CC=O` [acetaldehyde]: the dissociation constant Kd stood at 430 ± 15 µM.
